Patent US20170042870A1, “TARGETED NANOPARTICLE COMPOSITIONS AND METHODS OF THEIR USE TO TREAT OBESITY” (priority 2014, published 2017)

Columns and labels:
[1] = test system: stromal vascular fragments (SVF) from WAT; assay: qRT-PCR of integrin expression in SVF treated in vitro; type: cell-based, mice; conditions: Rosi 1 μM
Method: (§1) WAT was dissected and extensively washed with Hank's Balanced Salt Solution (HBSS, Invitrogen). Tissues were cut into small pieces using a surgical scissor, and digested with 0.1% collagenase A in HBSS and 1% bovine serum albumin (SigmaAldrich) for 30 minutes at 37 C with gentle shaking. The digested tissues were suspended in Dulbecco's modified Eagle's medium containing 10% fetal bovine serum, and then passed through a 100 μm cell strainer (BD Falcon) to remove debris. Subsequently, cell suspension was centrifuged for 10 minutes at 300×g. 3. After removal of the floating cell layer and supernatant, the cell pellet was resuspended in 10 ml of HBSS, and then filtered through a 40 μm cell strainer (BD Falcon). The filtered cell suspension was layered on top of a Histopaque-1077 solution (10 ml) in a 50 ml tube, and then centrifuged at 400 g for 30 min at room temperature. The SVF cell layer at the gradient interface was collected and washed with HBSS. Cell counts and viability assessment were performed. Primary SVF or sorted cells were maintained in DMEM plus 10% FCS, 1% penicillin/streptomycin, and 10 ng/ml murine bFGF (R&D Systems).
(§2) Angiogenic vessels usually express high levels of integrins, particularly αv and β3 subunits. […]

[2] = test system: stromal vascular fragments (SVF) from WAT; assay: Proliferation and cellular toxicity of SVF; type: cell-based, mice; conditions: in vitro
Method: as §1, §2

[3] = Serological parameters in fasted DIO mice; type: in vivo, C57Bl/6 mice; conditions: 25 days
Method: Serum levels of free fatty acid, glucose, triglycerides and cholesterol contents from fasted obese mice were determined by standard kits from Cayman Chemical Co. (Ann Arbor, Mich.). Serum insulin from fasted obese mice was determined by ELISA method according to manufacturer's protocol (Millipore, Billerica, Mass.).
Serum was collected from DIO mice that were fasted for five hours following 25 days of treatments, and analyzed for levels of serological parameters.

[4] = test system: CD31+ SVF; assay: Integrinαv antibody staining of CD31-sorted SVF; type: cell-based, mice; conditions: in vitro
Method: Angiogenic vessels usually express high levels of integrins, particularly αv and β3 subunits. To evaluate whether Rosi-loaded NPs can effectively induce expression of integrins on vascular cells, the stromal vascular fragments (SVF) were isolated from WAT, followed by treatment with Rosi (1 μM) in either solution or non-targeted NP form. CD31+ SVF was sorted and stained with Integrinαv antibody, Isolectin B4 and DAPI. C57Bl/6 mice were treated with Rosi, NP-Rosi, iRGD-NP-Rosi or P3-NP-Rosi for two weeks (n=3). IngWAT, epiWAT and livers were dissected and representative samples were imaged under IVIS imaging system. Inguinal WAT and epididymal WAT were dissected and representative samples were photographed.
It should also be noted that no evidence of cellular toxicity was observed under all the conditions. SVFs were sorted with an endothelial marker CD31, and stained cells with an Integrinαv antibody.

[5] = Body weight gain and food intake in DIO mice; type: in vivo, C57Bl/6 mice; conditions: 25 days post treatment, vs non-treated obese mice
Source text: All animal studies were approved by the Committee on Animal Care, Massachusetts Institute of Technology. 6-week-old male wild-type mice and 10-week-old male diet-induced obese mice, of the C57Bl/6 strain, were used in current studies. High-fat-diet (TD-06414, 60/Fat) was purchased from Harlan Laboratories, and was used to induce and maintain obesity in C57Bl/6 mice.
Standard diet fed or high-fat-diet fed C57Bl/6 mice were intravenous injected with either NP constructs or free drug (rosiglitazone or 16,16-dimethyl-PGE2) at the drug dose of 80 mg/kg, every second day. Free Rosi was dissolved in DMSO followed by dilution in saline.
The high-fat-diet induced obese model was used to assess the possible impact of the two peptide-NP-Rosi on body weight, tissue histology, and molecular expression profiles. There was no difference in body weight gain between the mice treated with Rosi (in solution and non-targeted NP forms) and non-treated obese mice (FIGS. 5A and B).

CN(CCOc1ccc(CC2SC(=O)NC2=O)cc1)c1ccccn1 (racemic) [Rosi, (RS)-5-[4-(2-[methyl(pyridin-2-yl)amino]ethoxy)benzyl]thiazolidine-2,4-dione]
expression level of Integrinαv on SVF (qRT-PCR) [1]: elevated the expression levels of Integrinαv
proliferation of SVF [2]: stimulated the proliferation of SVF
reduction of serum insulin [3]: 3 folds
Integrinαv on CD31-sorted SVF (antibody staining) [4]: upregulated
body weight gain [5]: no difference
